Where a SMILES comes first, the peptide text is derived from it.
Tested on: depressor response to spinal cord stimulation
Assay: Inhibition of depressor response to spinal cord stimulation in the pithed rat
Type: in vivo, Sprague Dawley rats
Conditions: for mean reduction (% of maximal depressor response): pithed male Sprague Dawley rat, intravenous, given prior to spinal cord stimulation; for effect when repeated a second time after a second non-antagonized depressor response: all animals examined
Description: Male Sprague Dawley rats (300±25 g) were anesthetized with pentobarbital sodium (50 mg/kg i.p.) and polyethylene catheters were positioned in both femoral veins for the intravenous administration of drugs, such as nociceptin and analogues, and into the left femoral artery in order to measure arterial blood pressure and heart rate.
The trachea was cannulated with polyethylene tubing and the rat was pithed, ventilated and drug treated as described by Nuki Y. et al. (Effects of Dorsal Rhizotomy on Depressor Response to Spinal Cord Stimulation Mediated by Endogenous Calcitonin Gene-related Peptide in the Pithed Rat. J. Neurosurg. 1993; 79: 899-904).
Prior administration of nociceptin and related analogs inhibited the depressor response to spinal cord stimulation accordingly: […]

Structure (SMILES)	mean reduction (% of maximal depressor response) (dose 0.1 mg/kg)	mean reduction (% of maximal depressor response) (dose 0.3 mg/kg)	effect when repeated a second time after a second non-antagonized depressor response (pithed rat)	dose-response of inhibition of depressor response (pithed rat, doses 0.1 and 0.3 mg/kg)
CC(C)C[C@H](NC(=O)[C@H](CCCCN)NC(=O)[C@H](CCCN=C(N)N)NC(=O)[C@H](C)NC(=O)[C@H](CO)NC(=O)[C@H](CCCCN)NC(=O)[C@H](CCCN=C(N)N)NC(=O)[C@H](C)NC(=O)CNC(=O)[C@@H](NC(=O)[C@H](Cc1ccccc1)NC(=O)CNC(=O)CNC(=O)[C@@H](N)Cc1ccccc1)[C@@H](C)O)C(=O)N[C@@H](C)C(=O)N[C@@H](CC(N)=O)C(=O)N[C@@H](CCC(N)=O)C(=O)O [nociceptin, reference compound]	29 ± 9 % of maximal depressor respons	23 ± 6 % of maximal depressor respons	seen when repeated a second time	
CC(=O)N[C@@H](CCCNC(=N)N)C(=O)N[C@@H](Cc1ccc(O)cc1)C(=O)N[C@@H](Cc1ccc(O)cc1)C(=O)N[C@@H](CCCNC(=N)N)C(=O)N[C@@H](Cc1c[nH]c2ccccc12)C(=O)N[C@@H](CCCCN)C(N)=O [Ac--Arg--Tyr--Tyr--Arg--Trp--Lys--NH2, Ac-Arg-Tyr-Tyr-Arg-Trp-Lys-NH2] (Ac-RYYRWK-NH2)	54 ± 12 % of maximal depressor respons	32 ± 7 % of maximal depressor respons	seen when repeated a second time	clear dose-response

— patent publication US6011006A, “Method of treating hot flushes with hexapeptides” (Novo Nordisk A/S, priority 1998, dated 2000)
